Data set [1] can be described thus: Aqueous solubility of the drugs used in the examples. The note with it: water.
Data set [2] in a line: Solubility of drug in polymer by double-scan DSC (Example 3). It counts as physicochemical. On the procedure: The solubilities of drug in HPMCAS polymers were determined using a double-scan differential scanning calorimetry (DSC) analysis of the dispersions as follows. The DSC analysis was carried out on either a TA Instruments DSC2920 or a Mettler DSC 821, calibrated with indium. DSC samples were prepared by weighing 2-4 mg of the dispersion in an aluminum pan with a pinhole. The sample was heated under nitrogen, at a rate of 5° C. per minute from about −20° C. to about 140° C. […] Heating above the Tg allows the drug to phase separate from the dispersion if the drug solubility in the polymer is lower than the drug loading.
The sample was then cooled and the sample was scanned a second time using the procedures outlined above. […] The amount of phase separated amorphous drug was estimated by comparing the magnitude of the heat capacity for the phase separated amorphous drug with the heat capacity for pure amorphous drug controls. […]

Data set [3] is described as follows: In vitro dissolution test, microcentrifuge method, PBS (Example 1). To be noted: PBS pH 6.5, 37° C.; for AUC90: 90 minutes; for C1200: concentration at 1200 minutes; for MDC,90: maximum concentration during first 90 minutes. It counts as physicochemical. The protocol: Dispersions 2, 3, 4, and 10 were evaluated in in vitro dissolution tests using a microcentrifuge method. In this method, 3.6 mg of the spray-dried dispersions was added to a 2-mL microcentrifuge tube. The tube was placed in a 37° C. sonicating bath, and 1.8 mL of phosphate-buffered saline (PBS) at pH 6.5 and 290 mOsm/kg was added. The samples were quickly mixed using a vortex mixer for about 90 seconds. The theoretical maximum concentration of drug if all the drug dissolved was 1000 μg/mL. The samples were centrifuged at 13,000 G at 37° C. for 1 minute. The resulting supernatant solution was then sampled (100 μL) and diluted with 200 μL methanol and then analyzed by HPLC. The tubes were then mixed on the vortex mixer and allowed to stand undisturbed at 37° C. until the next sample. Samples were collected at 4, 10, 20, 40, 90, and 1200 minutes.
As controls, in vitro tests were performed using the procedure described above, except that 0.18 mg of crystalline drug was placed in a microcentrifuge tube and mixed with 1.8 mL of PBS.

Data set [4] is described as follows: Microcentrifuge dissolution test in MFD solution, crystallization inhibition (Example 5). The data set is classed as physicochemical. The note with it: 37° C. On the procedure:
First, Dispersions 12 and 13 were evaluated in an in vitro dissolution test using the microcentrifuge method described in Example 1 except that 2.04 mg of the dispersions were separately added to microcentrifuge tubes in duplicate. A 1.8-mL sample of a model fasted duodenal (MFD) solution was then added to the tube and the samples were quickly mixed using a vortex mixer for about 90 seconds. The theoretical maximum concentration of drug if all the drug dissolved was about 100 μgA/mL, where “μgA” refers to the active micrograms of Drug 5. Samples were collected and analyzed by HPLC using a Kromasil C4 column (250 mm×4.6 mm). The mobile phase consisted of 0.2 vol % H3PO4/acetonitrile in a volume ratio of 45/55. Drug concentration was calculated by comparing UV absorbance at 245 nm to the absorbance of Drug 5 standards.
As a control, […] of Drug 5 (in the HCl salt form) was added to a separate microcentrifuge tube so that the concentration of drug if all of the drug had dissolved would have been about 200 μgA/mL. […] The MDC90 values provided by Dispersions 12 and 13 were 3.5-fold and 3.0-fold that of the crystalline Drug 5 control, while the AUC90 values were 2.6-fold and 2.7-fold that of the crystalline control. Furthermore, the concentration of dissolved Drug 5 after 1200 minutes (C1200) was higher for Dispersions 12 and 13 than the crystalline control, with Dispersions 12 and 13 providing C1200 values that were 1.7- and 1.4-fold that of the crystalline control, respectively.

Data set [5] is described as follows: In vitro membrane permeation test, Drug 1 (Example 6). To be noted: 37° C. It counts as physicochemical. On the procedure: Dispersion 14 was evaluated in vitro using a membrane permeation test as follows. An Accurel® PP 1E microporous polypropylene membrane was obtained from Membrana GmbH (Wuppertal, Germany). The membrane was washed in isopropyl alcohol and rinsed in methanol in a sonicating bath for 1 minute at ambient temperature, and then allowed to air dry at ambient temperature. The feed side of the membrane was then plasma-treated to render it hydrophilic by placing a sample of the membrane in a plasma chamber. The atmosphere of the plasma chamber was saturated with water vapor at a pressure of 550 mtorr. A plasma was then generated using radio frequency (RF) power inductively coupled into the chamber via annular electrodes at a power setting of 50 watts for 45 seconds. The contact angle of a drop of water placed on the surface of the plasma-treated membrane was about 40°. […]
To form the feed solution, a 1.2 mg sample of the dispersion was weighed into the feed reservoir. […] Samples were then diluted in 250 μL IPA and analyzed using HPLC. […]
The maximum flux of drug across the membrane (in units of μg/cm^2-min) was determined by performing a least-squares fit to the data from 0 to 60 minutes to obtain the slope, multiplying the slope by the permeate volume (5 mL), and dividing by the membrane area (4.9 cm^2). […]

Values joined by “and” are separate entries in the source; they are usually repeats but may differ in a detail not shown here. Equal values may be shown once.

Turning to `O=C1Cc2cc(CCN3CCN(c4nsc5ccccc45)CC3)c(Cl)cc2N1` [Drug 5], the solubility (usually the concentration that dissolves in the medium under given conditions) in data set [1] is < 0.1 µg/mL and ~10 µg/mL.

With `CCOC(=O)N1c2ccc(C(F)(F)F)cc2[C@@H](N(Cc2cc(C(F)(F)F)cc(C(F)(F)F)c2)C(=O)OC)C[C@H]1CC` [Drug 1, [2R,4S]4-[(3,5-bis-trifluoromethyl-benzyl)-methoxycarbonyl-amino]-2-ethyl-6-trifluoromethyl-3,4-dihydro-2H-quinoline-1-carboxylic acid ethyl ester], the solubility in data set [1] is < 0.04 µg/mL. Also, the figures for the “solubility of the drug in the polymer” value in data set [2] (in the H grade of HPMCAS) and in data set [2] (in the M grade of HPMCAS) were 35-40 wt % and 25 to 30 wt %, respectively.

`CCc1cc(Oc2cccc(N(Cc3cccc(OC(F)(F)C(F)F)c3)C[C@@H](O)C(F)(F)F)c2)ccc1Cl` [Drug 4, (2R)-3-[[3-(4-chloro-3-ethylphenoxy)phenyl][[3-(1,1,2,2-tetrafluoroethoxy)phenyl]methyl]amino]-1,1,1-trifluoro-2-propanol]: the solubility in data set [1] was < 1 µg/mL.

On to `CC[C@@H]1C[C@H](N(Cc2cc(C(F)(F)F)cc(C(F)(F)F)c2)C(C)=O)c2cc(C(F)(F)F)ccc2N1C(=O)OC(C)C` [Drug 2, [2R,4S]4-[acetyl-(3,5-bis-trifluoromethyl-benzyl)-amino]-2-ethyl-6-trifluoromethyl-3,4-dihydro-2H-quinoline-1-carboxylic acid isopropyl ester], for which, in data set [1], the solubility was < 1 µg/mL.

With `CC[C@@H]1C[C@H](N(Cc2cc(C(F)(F)F)cc(C(F)(F)F)c2)C(=O)OC)c2cc(C(F)(F)F)ccc2N1C(=O)OC(C)C` [Crystalline Drug 3, [2R,4S]4-[(3,5-bis-trifluoromethyl-benzyl)-methoxycarbonyl-amino]-2-ethyl-6-trifluoromethyl-3,4-dihydro-2H-quinoline-1-carboxylic acid isopropyl ester], in data set [3], the AUC90 is given as <88 min-μg/mL, the C1200 was <1 µg/mL and the “MDC,90” value is <1 µg/mL.

On to `O=C1Cc2cc(CCN3CCN(c4nsc5ccccc45)CC3)c(Cl)cc2N1` [Crystalline Drug 5], for which, in data set [4], the AUC90 was 1,700 min-μg/mL and the “MDC,90” value came out at 22 µg/mL. In addition, the C1200 in data set [4] (1200 minutes) is 9 µg/mL.

For the compound `CC[C@@H]1C[C@H](N(Cc2cc(C(F)(F)F)cc(C(F)(F)F)c2)C(=O)OC)c2cc(C(F)(F)F)ccc2N1C(=O)OC(C)C` [Drug 3, [2R,4S]4-[(3,5-bis-trifluoromethyl-benzyl)-methoxycarbonyl-amino]-2-ethyl-6-trifluoromethyl-3,4-dihydro-2H-quinoline-1-carboxylic acid isopropyl ester], the solubility in data set [1] was < 1 µg/mL.

As to `CCOC(=O)N1c2ccc(C(F)(F)F)cc2[C@@H](N(Cc2cc(C(F)(F)F)cc(C(F)(F)F)c2)C(=O)OC)C[C@H]1CC` [Crystalline Drug 1, [2R,4S]4-[(3,5-bis-trifluoromethyl-benzyl)-methoxycarbonyl-amino]-2-ethyl-6-trifluoromethyl-3,4-dihydro-2H-quinoline-1-carboxylic acid ethyl ester], the “Maximum Flux of Drug 1” value in data set [5] (feed solution 0.5% NaTC/POPC (MFD), permeate 20 wt % decanol in decane) came out at 0.076 μg/cm^2-min. In data set [5] (feed solution 2.0 wt % NaTC/POPC (fed state model)), the “Maximum Flux of Drug 1” value is 0.13 μg/cm^2-min. Further, in data set [3], the AUC90 is recorded as <88 min-μg/mL, the C1200 is <1 µg/mL and the “MDC,90” value is <1 µg/mL.

Source of the values: patent publication US8940800B2, “Pharmaceutical compositions with enhanced performance” (Bend Research, Inc., priority 2004, dated 2015).
